Measurements: US11566018B2, “Treatment of infectious disease” (The Governors of the University of Alberta, priority 2018, dated 2023)

Legend:
RSV-A2-GFP [1] = assay: Dose response experiments, progeny virus titered on HeLa cells; assay type: cell-based, human RSV strain A2; details: 1HAEo- cells
Procedure: Dose response experiments. 1HAEo-cells were infected as described, progeny virus collected, and tittered on HeLa cells in duplicate as described in SAR 2. During initial infection in 1HAEo-cells infectious media was replaced with media containing compounds at indicated concentrations at 2 hours post infection. Proportion of virus infected cells were quantified via indirect immunofluorescence assay.
To further assess the therapeutic potential of compounds identified in SAR 1 and SAR 2, a therapeutic index (TI) of each compound was identified (e.g., ratio of […]). […] Overall, the TI was increased from 4.1 for compound 5a to 12.3 with compound 5f.

1HAEo- cells = assay: MTT cell viability assay; assay type: cell-based, human; details: compounds at 10 μM, SAR screens
Procedure: (§1) MTT cell viability assay. 1HAEo-cells were grown in parallel with infected and compound treated cells in SAR and dose response experiments. 0.3 mg/mL of MTT ((3-(4,5-dimethylthiazol-2-yl)-2,5-diphenyl tetrazolium bromide)) in PBS was added to wells and incubated for 1 hour. Precipitate was dissolved in DMSO and absorbance was measured at 570 nm.

MTT cell viability assay = assay type: cell-based, human; details: human; 1HAEo- cells, dose response; read-out: CC50 (cytotoxic concentration at which cell viability is reduced by half)
Procedure: as §1

RSV-GFP-A2 = assay: Mutant escape assay (serial passage); assay type: cell-based, human RSV strain A2; details: 14 serial passages over five weeks, 1HAEo- cells
Procedure: Mutant escape assay. 1HAEo-cells were infected with RSV-GFP-A2 at an initial MOI of 0.1 and serial passaged over incubation periods of 48-72 hours. Samples were collected during passaging and stored in liquid nitrogen for tittering via indirect immunofluorescence assay. Ongoing low level viral infection during passaging was confirmed by identification of green fluorescence from GFP produced by the RSV-GFP in infected cells.
An established challenge to development of antiviral pharmaceuticals is the evolution of antiviral resistance. This is pronounced for viruses with RNA genome due to an inherent error-prone process of RNA-dependent RNA polymerase replication of a viral genome. Error prone replication results in a high mutation rate of RNA viruses that leads to development of antiviral resistance. As such, development of resistant mutants to compounds 5a and 5f was undertaken, as the site of mutations could provide further insights into the nature of the viral target.

RSV-A2-GFP [2] = assay: Structure activity relationship screens of antiviral activity (SAR 1/SAR 2); progeny virus by indirect immunofluorescence; assay type: cell-based, human RSV strain A2; details: compounds at 10 μM, 1HAEo- cells, progeny virus on HeLa indicator cells
Procedure: (§2) Cells and virus. Hep-2 cells were grown in Opti-MEM media supplemented with 2% fetal bovine serum (FBS), 1HAEo-cells were grown in MEM media supplemented with 10% FBS, and Hela cells grown in DMEM supplemented with 10% FBS. Infections were conducted using human RSV strain A2 or RSV-A2-GFP strain described previously [Hallak, L. K.; Spillmann, D.; Collins, P. L.; Peeples, M. E. J. Virol. 2000, 74, 10508-10513]. A549 cells and Vero cells were grown in DMEM supplemented with 10% FBS and used for experiments with ZIKV (Cambodia strain).
Structure activity relationship screens of antiviral activity. 1HAEo-cells were seeded at 80% confluency and incubated overnight. In SAR1 cells were preincubated with compounds for one hour at 20 μM prior to infection, followed by dilution to 10 μM and infection with RSV-A2-GFP at an MOI of 1 for 2 hours. In SAR2 1HAEo-cells were infected with RSV-A2-GFP at an MOI of 0.5 for 2 hours without pre-incubation with compounds. At 2 hours post infection, infectious media was removed from wells to prevent carry over of infecting virus into progeny collections. Fresh media containing compounds at 10 μM was added for remainder of 48 hour incubation. […]
Progeny virus quantification via indirect immunofluorescence. […] Total cells (identified by DAPI staining) and infected cells were counted via the Operetta high content imaging system at 20x objective magnification. […]

ZIKV (Cambodia strain) = assay: Zika Virus antiviral screen (plaque assay); assay type: cell-based; details: 10 μM, progeny virus quantified on Vero cells by plaque assay, n=3
Procedure: as §2
Zika Virus antiviral screen. Vero cells were pre-treated with bis(indole) compounds at 10 μM for 4 hours before infection with ZIKV at an MOI of 1. After 48 hour infection progeny ZIKV was collected, serial diluted over 6 logs, and transferred onto fresh Vero cell monolayers and incubated for 4 days. Vero cell monolayers were then fixed with 10% formaldehyde and stained with crystal violet; viral infection was quantified via plaque assay.
ZIKV constitutes a virus distinct from RSV with a markedly different intracellular replication strategy. Both viruses encode a viral RdRp essential to viral replication; however, the structure and function of RSV RdRp and ZIKV RdRp are quite different. […] RSV polymerase recognizes cis-acting ‘gene start’ and ‘gene end’ elements of the viral genome to produce subgenomic mRNAs enabling translation of viral proteins. […]

[3] = target: T1, RSV viral replication complex (Human respiratory syncytial virus A, UniProt P28887); assay: Cell extract-based in vitro inhibition of viral transcription; assay type: biochemical, RSV A2
T1 construct: endogenous in cells; crude lysolecithin cell extract
T1 sequence (P28887 whole entry): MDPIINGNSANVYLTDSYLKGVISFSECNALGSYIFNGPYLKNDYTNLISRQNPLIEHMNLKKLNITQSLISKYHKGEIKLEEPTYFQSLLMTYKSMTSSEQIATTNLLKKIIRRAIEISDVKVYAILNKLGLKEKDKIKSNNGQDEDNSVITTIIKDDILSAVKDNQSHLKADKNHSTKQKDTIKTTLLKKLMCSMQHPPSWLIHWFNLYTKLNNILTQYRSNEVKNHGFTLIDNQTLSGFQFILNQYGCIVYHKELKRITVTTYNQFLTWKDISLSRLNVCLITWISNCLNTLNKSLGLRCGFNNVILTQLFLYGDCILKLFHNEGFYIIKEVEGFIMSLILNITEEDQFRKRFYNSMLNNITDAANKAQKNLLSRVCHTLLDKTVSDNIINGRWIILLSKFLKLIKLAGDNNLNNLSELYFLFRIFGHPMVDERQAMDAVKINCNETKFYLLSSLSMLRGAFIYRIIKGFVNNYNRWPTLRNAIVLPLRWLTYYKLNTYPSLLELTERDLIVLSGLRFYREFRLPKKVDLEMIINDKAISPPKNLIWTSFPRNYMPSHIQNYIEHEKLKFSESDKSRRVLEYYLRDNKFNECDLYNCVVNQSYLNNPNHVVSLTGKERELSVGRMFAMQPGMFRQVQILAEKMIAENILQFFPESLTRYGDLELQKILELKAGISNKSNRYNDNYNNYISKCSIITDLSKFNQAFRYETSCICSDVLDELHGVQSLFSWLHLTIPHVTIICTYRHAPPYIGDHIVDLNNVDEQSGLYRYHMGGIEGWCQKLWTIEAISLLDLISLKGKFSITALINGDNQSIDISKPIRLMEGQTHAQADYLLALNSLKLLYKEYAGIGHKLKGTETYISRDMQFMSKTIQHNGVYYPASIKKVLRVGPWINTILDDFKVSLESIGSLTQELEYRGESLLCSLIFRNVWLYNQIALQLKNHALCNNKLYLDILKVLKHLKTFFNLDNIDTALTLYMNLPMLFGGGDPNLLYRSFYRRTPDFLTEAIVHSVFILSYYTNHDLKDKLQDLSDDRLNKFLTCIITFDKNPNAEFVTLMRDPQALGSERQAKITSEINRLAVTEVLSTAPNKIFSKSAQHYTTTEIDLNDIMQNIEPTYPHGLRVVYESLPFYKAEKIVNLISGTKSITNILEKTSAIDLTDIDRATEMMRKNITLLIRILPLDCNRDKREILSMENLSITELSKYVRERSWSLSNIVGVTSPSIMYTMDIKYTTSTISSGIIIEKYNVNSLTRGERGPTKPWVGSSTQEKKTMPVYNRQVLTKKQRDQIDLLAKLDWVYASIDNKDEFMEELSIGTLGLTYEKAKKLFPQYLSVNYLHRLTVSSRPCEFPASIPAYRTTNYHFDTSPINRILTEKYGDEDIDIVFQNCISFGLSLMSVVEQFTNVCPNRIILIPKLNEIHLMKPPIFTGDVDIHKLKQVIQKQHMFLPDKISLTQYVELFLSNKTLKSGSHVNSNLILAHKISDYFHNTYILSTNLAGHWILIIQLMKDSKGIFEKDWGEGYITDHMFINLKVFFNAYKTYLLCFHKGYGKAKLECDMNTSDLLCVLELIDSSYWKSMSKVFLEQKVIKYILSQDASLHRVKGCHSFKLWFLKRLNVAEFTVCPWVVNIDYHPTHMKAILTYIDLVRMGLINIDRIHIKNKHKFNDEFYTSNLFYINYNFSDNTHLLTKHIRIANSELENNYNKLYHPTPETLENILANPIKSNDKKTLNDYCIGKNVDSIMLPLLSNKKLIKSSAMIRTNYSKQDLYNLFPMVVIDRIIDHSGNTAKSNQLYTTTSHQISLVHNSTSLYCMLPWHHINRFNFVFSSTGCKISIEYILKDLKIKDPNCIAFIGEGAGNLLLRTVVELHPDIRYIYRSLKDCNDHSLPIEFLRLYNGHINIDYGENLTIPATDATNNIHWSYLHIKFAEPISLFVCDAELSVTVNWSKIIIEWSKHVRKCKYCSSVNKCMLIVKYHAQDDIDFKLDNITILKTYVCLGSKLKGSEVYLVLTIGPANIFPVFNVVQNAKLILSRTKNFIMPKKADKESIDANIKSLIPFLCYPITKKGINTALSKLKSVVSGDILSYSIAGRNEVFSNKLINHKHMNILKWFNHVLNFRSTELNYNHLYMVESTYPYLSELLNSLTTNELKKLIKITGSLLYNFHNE
T1 sequence (P03421 whole entry, further chain): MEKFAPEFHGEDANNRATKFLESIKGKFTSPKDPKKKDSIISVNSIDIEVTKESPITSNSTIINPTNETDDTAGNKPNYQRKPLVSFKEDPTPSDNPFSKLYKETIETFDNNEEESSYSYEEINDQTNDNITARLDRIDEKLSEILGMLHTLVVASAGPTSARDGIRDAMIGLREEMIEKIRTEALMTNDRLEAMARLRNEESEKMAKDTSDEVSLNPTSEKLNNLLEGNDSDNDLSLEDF

SMILES | viral replication at concentrations tolerated by the host cell (RSV-A2-GFP [1]) | cytotoxicity (cell viability) (1HAEo- cells) | CC50 (MTT cell viability assay) [µM] | development of resistant virus (RSV-GFP-A2) | antiviral activity (inhibition of RSV infection) (RSV-A2-GFP [2]) | inhibition of ZIKV infection (ZIKV (Cambodia strain)) | viral transcription from the RSV replication complex [3]
COC(=O)C1(c2cn(C)c3ccccc23)Nc2cc(Cl)ccc2C1=O (stereo not shown) [Compound 2p] | viral replication was not diminished at compound concentrations tolerated by the host cell | demonstrated cytotoxicity in SAR 1 | 22.8 |  |  |  | 
COC(=O)C1(c2c(-c3ccccc3)[nH]c3ccccc23)Nc2cc(Cl)ccc2C1=O (stereo not shown) [Compound 5a] | consistently inhibited viral replication at concentrations tolerated by the host cell | no cytotoxicity | 42.5 | did not result in the development of viruses resistant to either compound | comparable to that of the known antiviral guanosine-analogue drug ribavirin | Significant inhibition | Decreasing viral transcription from the RSV replication complex was observed in a dose dependent manner
COC(=O)C1(c2c(-c3ccc(OC)cc3)[nH]c3ccccc23)Nc2cc(Cl)ccc2C1=O (stereo not shown) [Compound 5b] |  |  | 59.2 |  |  |  | 
COC(=O)C1(c2c(-c3ccc(OC)cc3)[nH]c3ccccc23)Nc2cc(Br)ccc2C1=O (stereo not shown) [Compound 5f] |  |  | 93.5 | did not result in the development of viruses resistant to either compound |  |  | 
